“And” between values parts separate entries of the source, which are not always exact repeats. Equal values may be shown once. After the bases stand the sugars from the 5' end (letter, count) and the backbone: PS all phosphorothioate, else s phosphorothioate and o phosphodiester by linkage. Methylation of C is not given here. e = 2'-O-(2-methoxyethyl) (MOE); k = constrained ethyl (cEt); d = 2'-deoxy (DNA)
Target: IRF4
Conditions: ASO

| Sequence | target mRNA inhibition (SK-MEL-28, 4 µM) | target mRNA inhibition (MM.1R, 1 µM) | further results |
| --- | --- | --- | --- |
| CCGGAGCAGGCCCGGG (sugars k3 d10 k3, PS) | -13% |  |  |
| CCGGAGGCCGCCGTGA (sugars k3 d10 k3, PS) | 13% |  |  |
| CCGGTAGAGTGAGATG (sugars k3 d10 k3, PS) |  | -3% |  |
| CCGTATCCCCGTATCA (sugars k3 d10 k3, PS) | 35% |  |  |
| CCGTGATCTGAGACTA (sugars k3 d10 k3, PS) |  | 45% and 30% | target mRNA inhibition (MM.1R, 0.0625 µM): 0%; target mRNA inhibition (MM.1R, 0.25 µM): 13%; target mRNA inhibition (MM.1R, 4 µM): 71% |
| CCTACACAGGCTAATC (sugars k3 d10 k3, PS) | 13% |  |  |
| CCTACTGGGTACATGG (sugars k3 d10 k3, PS) | 63% |  |  |
| CCTATAACTTCTCCTG (sugars k3 d10 k3, PS) |  | -7% |  |
| CCTCAGGAAATGTCCA (sugars k3 d10 k3, PS) | 37% |  |  |
| CCTCAGGAAATGTCCA (sugars k4 d8 k4, PS) | 10% |  |  |
| CCTCAGTTTGTGAAGC (sugars kddddddddddkekek, PS) |  | 26% |  |
| CCTCAGTTTGTGAAGC (sugars kkdddddddddkdkdk, PS) |  | 8% |  |
| CCTGAAAAGAGCCGCC (sugars k3 d10 k3, PS) |  | -3% |  |
| CCTGAATTTACAGCAT (sugars k3 d10 k3, PS) | 40% |  |  |
| CCTGAGTTACCGCATT (sugars k3 d10 k3, PS) |  | 24% |  |
| CCTGGCGGCCTCCACG (sugars k3 d10 k3, PS) | -31% |  |  |
| CCTGGGACTCAGGTGG (sugars k4 d8 k4, PS) | 7% |  |  |
| CCTGGGAGTAATAGTA (sugars k3 d10 k3, PS) | 53% |  |  |
| CCTGGTCCAGGTTGCT (sugars k4 d8 k4, PS) | 34% |  |  |
| CCTGTCACCTGGCAAC (sugars k3 d10 k3, PS) | 41% |  |  |
| CCTTGAAGAGCGCGGC (sugars k3 d10 k3, PS) | 24% |  |  |
| CCTTTTCAGAGTCCTG (sugars k3 d10 k3, PS) | 58% |  |  |
| CGAAAACAGCCGCCGG (sugars k3 d10 k3, PS) | 15% |  |  |
| CGAGGTGATTCTCGGG (sugars k3 d10 k3, PS) |  | 15% |  |
| CGATCATCAACTTCTT (sugars k3 d10 k3, PS) |  | 72% and 75% | target mRNA inhibition (MM.1R, 0.0625 µM): 24% and 23%; target mRNA inhibition (MM.1R, 0.25 µM): 50%; target mRNA inhibition (MM.1R, 4 µM): 92% and 93% |
| CGCAAAACCCCTCAAG (sugars k3 d10 k3, PS) | 19% |  |  |

| Sequence | target mRNA inhibition (SK-MEL-28, 4 µM) | target mRNA inhibition (MM.1R, 1 µM) | further results |
| --- | --- | --- | --- |
| CGCAAGGCTCGGAGCG (sugars k3 d10 k3, PS) | 10% |  |  |
| CGCAGCATCGAACTCC (sugars k3 d10 k3, PS) | 33% |  |  |
| CGCCAGGCCGGCTAGG (sugars k3 d10 k3, PS) | 10% |  |  |
| CGCGAAGGCTCCTACC (sugars k3 d10 k3, PS) | -41% |  |  |
| CGCGACTCTGTCAGTT (sugars k3 d10 k3, PS) |  | 8% |  |
| CGCTGAACTGAAATCT (sugars k3 d10 k3, PS) | 37% |  |  |
| CGGACACGCCCGACCC (sugars k3 d10 k3, PS) |  | 7% |  |
| CGGATAGATCTGTGGT (sugars k3 d10 k3, PS) |  |  | target mRNA inhibition (MM.1R, 0.0625 µM): -25%; target mRNA inhibition (MM.1R, 0.25 µM): -3%; target mRNA inhibition (MM.1R, 4 µM): 50% |
| CGGCACAGGCGCGGAC (sugars k3 d10 k3, PS) | 4% |  |  |
| CGGCAGTCTGCAAACA (sugars k3 d10 k3, PS) |  | 24% |  |
| CGGGAGCCCGGAGGAA (sugars k3 d10 k3, PS) |  | -3% |  |
| CGGTCAGCAGAACCAC (sugars k3 d10 k3, PS) |  | -8% |  |
| CGTAACTCAGGCACCA (sugars k3 d10 k3, PS) | 30% |  |  |
| CGTAGCCCCTCAGGAA (sugars k3 d10 k3, PS) |  |  | target mRNA inhibition (MM.1R, 4 µM): 81% and 59% |
| CGTATGTCCATGGGAG (sugars k3 d10 k3, PS) | 88% |  |  |
| CGTGATCTGAGACTAC (sugars k3 d10 k3, PS) |  | 25% and 36% |  |
| CGTGTGCTTGCCAAGC (sugars kdddddddddkekeke, PS) |  | 24% and 11% |  |
| CGTGTGCTTGCCAAGC (sugars kkdddddddddkdkdk, PS) |  | 67% and 53% |  |
| CTAAACTCCTAAGTAC (sugars k3 d10 k3, PS) | 14% |  |  |
| CTAACAGATAACGAGG (sugars k3 d10 k3, PS) | 23% |  |  |
| CTAACTTACAGGACTA (sugars k3 d10 k3, PS) | 31% |  |  |
| CTAAGCTTGATAAAGG (sugars k3 d10 k3, PS) | 54% |  |  |
| CTAATACCTACCTGCC (sugars k3 d10 k3, PS) | 47% |  |  |
| CTACAAGCAGTCATCA (sugars k3 d10 k3, PS) | 44% |  |  |
| CTACAAGGTCTGAGTT (sugars k3 d10 k3, PS) | 17% |  |  |
| CTACAGGCACGGCTTC (sugars k3 d10 k3, PS) | 52% |  |  |

| Sequence | target mRNA inhibition (SK-MEL-28, 4 µM) | target mRNA inhibition (MM.1R, 1 µM) | further results |
| --- | --- | --- | --- |
| CTACTATTGTGGAAAA (sugars k3 d10 k3, PS) | 3% |  |  |
| CTAGAAAGAGCTGGTA (sugars k3 d10 k3, PS) | 15% |  |  |
| CTAGAAAGTGATGCTC (sugars k3 d10 k3, PS) | 39% |  |  |
| CTAGAACATGATGAGA (sugars k3 d10 k3, PS) | 29% |  |  |
| CTAGATAACATGAGAG (sugars k3 d10 k3, PS) | 53% |  |  |
| CTATAATTGGCACGAG (sugars k3 d10 k3, PS) | 63% |  |  |
| CTATAGTGTTCCAGGA (sugars kkdddddddddkekek, PS) |  | 43% |  |
| CTCACGAGCACCTCAG (sugars k3 d10 k3, PS) | 42% |  |  |
| CTCACTGCTCACTAAG (sugars k3 d10 k3, PS) | 64% |  |  |
| CTCCAAAGCATAGAGT (sugars k3 d10 k3, PS) | 23% |  |  |
| CTCCAACCCTAGATAA (sugars k3 d10 k3, PS) | 2% |  |  |
| CTCCAGGGAATGGATA (sugars k3 d10 k3, PS) | 27% |  |  |
| CTCCATTCAAGCCAGT (sugars k3 d10 k3, PS) | 58% |  |  |
| CTCCCAGAGTTGTTCC (sugars k3 d10 k3, PS) | 34% |  |  |
| CTCCTACCCGCCTGCT (sugars k3 d10 k3, PS) | 15% |  |  |
| CTCCTATAACTTCTCC (sugars k3 d10 k3, PS) | 33% |  |  |
| CTCGGCCGCCGCCCTC (sugars k3 d10 k3, PS) | 37% |  |  |
| CTCTATAGTGTTCCAG (sugars kkddddddddddkeke, PS) |  | 27% |  |
| CTCTATAGTGTTCCAG (sugars kkdddddddddkdkdk, PS) |  | 31% |  |
| CTCTATAGTGTTCCAG (sugars kkkdddddddddkeke, PS) |  | 49% |  |
| CTCTATAGTGTTCCAG (sugars kkkddddddddkekek, PS) |  | 15% |  |
| CTCTGTAACTGACTAA (sugars k3 d10 k3, PS) |  | 16% |  |
| CTCTTAGGCACATCAA (sugars k3 d10 k3, PS) | 61% |  |  |
| CTCTTCAGGCACCCAC (sugars k3 d10 k3, PS) |  | 13% |  |
| CTGAAGCTTAGTTATC (sugars k3 d10 k3, PS) | 38% |  |  |
| CTGAGATAAGAAGCAC (sugars k3 d10 k3, PS) | 37% |  |  |

| Sequence | target mRNA inhibition (SK-MEL-28, 4 µM) | target mRNA inhibition (MM.1R, 1 µM) | further results |
| --- | --- | --- | --- |
| CTGCAACTGGCTCACT (sugars k3 d10 k3, PS) | 10% |  |  |
| CTGCAGGGTAATTTAG (sugars k3 d10 k3, PS) | 34% |  |  |
| CTGCATCGAGATCAGT (sugars k3 d10 k3, PS) | 52% |  |  |
| CTGCATGAAAGTGTGT (sugars k3 d10 k3, PS) | 56% |  |  |
| CTGCCACTGGTAACTG (sugars k3 d10 k3, PS) |  | 21% |  |
| CTGCGGGTCCTCCAGG (sugars k3 d10 k3, PS) | 20% |  |  |
| CTGCTCTGGCACAGTC (sugars k3 d10 k3, PS) | 83% |  |  |
| CTGCTTGAGGTTTTCC (sugars k3 d9 k3 e1, PS) |  | 65% | target mRNA inhibition (MM.1R, 0.074 µM): 18%; target mRNA inhibition (MM.1R, 0.222 µM): 36%; target mRNA inhibition (MM.1R, 0.666 µM): 60%; target mRNA inhibition (MM.1R, 2 µM): 82% |
| CTGCTTGAGGTTTTCC (sugars kkdddddddddekeke, PS) |  | 49% |  |
| CTGCTTGAGGTTTTCC (sugars kkdddddddddkekek, PS) |  | 30% |  |
| CTGGATTGCTGATGTG (sugars k3 d10 k3, PS) |  | 56% and 36% | target mRNA inhibition (MM.1R, 4 µM): 83% and 71% |
| CTGGCCTGAAGCTTAG (sugars k3 d10 k3, PS) |  | 25% |  |
| CTGTAACAGGCTATCA (sugars k3 d10 k3, PS) | 44% |  |  |
| CTGTATCATGCATACC (sugars k3 d10 k3, PS) | 61% |  |  |
| CTGTATTTATGCCCTC (sugars k3 d10 k3, PS) | 60% |  |  |
| CTGTCACCTGGCAACC (sugars k3 d10 k3, PS) |  | 11% |  |
| CTGTGTAATGTAGGGA (sugars k3 d10 k3, PS) | 42% |  |  |
| CTGTTACCGATGCTTC (sugars k2 d9 e3 k2, PS) |  | 64% and 56% |  |
| CTGTTACCGATGCTTC (sugars k3 d10 k3, PS) |  | 56% and 55% | target mRNA inhibition (MM.1R, 0.0625 µM): 18%; target mRNA inhibition (MM.1R, 0.25 µM): 36%; target mRNA inhibition (MM.1R, 4 µM): 82% |
| CTGTTACCGATGCTTC (sugars kkdddddddddekeke, PS) |  | 50% and 60% |  |
| CTGTTACCGATGCTTC (sugars kkdddddddddkdkdk, PS) |  | 58% and 52% |  |
| CTTAAGCAAGTGGAGG (sugars k3 d10 k3, PS) | 70% |  |  |
| CTTAGTCAGAATCTGT (sugars k3 d10 k3, PS) |  | 1% |  |
| CTTATTAGACTGACAG (sugars k3 d10 k3, PS) | 41% |  |  |
| CTTATTTGTGGCTCAA (sugars k3 d10 k3, PS) | 55% |  |  |
| CTTCCCTGAGAAATGG (sugars k4 d8 k4, PS) | 36% |  |  |

Reference: the OligoGym collection
